Laboratory results taken from US20220370416A1, “COMPOUNDS AND METHODS FOR TARGETED DEGRADATION OF KRAS” (Arvinas Operations, Inc., priority 2020, published 2022).

Assays:
HiBit-KRAS^G12C [1] = target: T1, HiBit-KRAS^G12C (Homo sapiens, UniProt P01116, G12C); test: HiBit degradation assay in MiaPaCa-2 HiBit-KRas^G12C cells; assay type: cell-based; conditions: 24 hours
Method in brief: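 MiaPaCa-2 cells with CRISPR N-terminal HiBit knock-in on one endogenous KRAS^G12C allele, treated 24 hours at 37° C with compound titrated 10 μM to 20 nM (0.1% or 0.5% DMSO). Lytic HiBit luminescence normalized to DMSO, 4-parameter fit giving DC50 and Dmax; points cytotoxic to […] cells by alamar blue excluded.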

HiBit-KRAS^G12C [2] = target: T1, HiBit-KRAS^G12C; test: HiBit degradation assay in SW1573 HiBit-KRas^G12C cells; assay type: cell-based; set-up: expressed in transfected cells; host or cells: SW1573 (clone E6), modified pcDNA3.1 vector, TK promoter; conditions: 24 hours
Method in brief: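 SW1573 cells stably expressing N-terminally HiBit-tagged KRAS G12C, under the TK promoter, were treated 24 h at 37 °C with 10 μM to 20 nM compound in 0.1% or 0.5% DMSO. Residual HiBit luminescence normalised to DMSO and fitted with a 4-parameter model for DC50 and Dmax. Points with ≥50% viability loss (alamar blue) excluded.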

[3] = MIA PaCa-2, MiaPaCa-2 HiBit-KRas^G12C cells, 0.5% DMSO, maximum degradation, read-out: KRas^G12C-HiBiT (MiaPaCa; 0.5% DMSO) DMax
[4] = read-out: KRas^G12C-HiBiT (MiaPaCa; 0.5% DMSO) IC50, MiaPaCa-2 HiBit-KRas^G12C cells, 0.5% DMSO
[5] = SW1573 HiBit-KRas^G12C, 0.5% DMSO
[6] = read-out: KRas^G12C-HiBiT (SW1573; 0.5% DMSO) IC50***, SW1573 HiBit-KRas^G12C, 0.5% DMSO
[7] = SW1573, read-out: KRas^G12C-HiBit (SW1573; 0.1% DMSO) Dmax**, SW1573 HiBit-KRas^G12C, 0.1% DMSO
[8] = SW1573 HiBit-KRas^G12C, 0.1% DMSO, read-out: KRas^G12C-HIBit (SW1573; 0.1% DMSO) DC50*
[9] = read-out: KRas^G12C-HiBiT (MiaPaCa; 0.1% DMSO) IC50, MiaPaCa-2 HiBit-KRas^G12C cells, 0.1% DMSO
[10] = SW1573, SW1573 HiBit-KRas^G12C, 0.1% DMSO, read-out: KRas^G12C-HiBit (SW1573; 0.1% DMSO) Dmax**

T1 sequence (P01116 1-186 isoform P01116-2 G12C limits assumed): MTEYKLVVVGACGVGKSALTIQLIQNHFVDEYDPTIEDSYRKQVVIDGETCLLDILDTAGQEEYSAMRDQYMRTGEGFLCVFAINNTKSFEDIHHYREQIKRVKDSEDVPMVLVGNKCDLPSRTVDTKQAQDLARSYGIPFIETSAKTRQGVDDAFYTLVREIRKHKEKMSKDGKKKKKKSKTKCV

| SMILES | DC50 (HiBit-KRAS^G12C [1]; [4]) [nM] | DC50 (HiBit-KRAS^G12C [2]; [6]) [nM] | DC50 (HiBit-KRAS^G12C [2]; [8]) [nM] | DC50 (HiBit-KRAS^G12C [1]; [9]) [nM] | further results |
| --- | --- | --- | --- | --- | --- |
| C=CC(=O)N1CCN(c2nc(O[C@H](C)CN3CCC(COCC(=O)N[C@H](C(=O)N4C[C@H](O)C[C@H]4C(=O)N[C@@H](C)c4ccc(-c5scnc5C)cc4)C(C)(C)C)CC3)nc3c(F)c(-c4cc(O)cc5cccc(C)c45)c(Cl)cc23)CC1 [Compound 11, (2S,4R)-1-[(2S)-2-[2-({1-[(2R)-2-{[6-chloro-8-fluoro-7-(3-hydroxy-8-methylnaphthalen-1-yl)-4-[4-(prop-2-enoyl)piperazin-1-yl]quinazolin-2-yl]oxy}propyl]piperidin-4-yl}methoxy)acetamido]-3,3-dimethylbutanoyl]-4-hydroxy-N-[(1S)-1-[4-(4-methyl-1,3-thiazol-5-yl)phenyl]ethyl]pyrrolidine-2-carboxamide] |  |  | 100 to 1000 |  | Dmax (HiBit-KRAS^G12C [1]; MIA PaCa-2, read-out: KRas^G12C-HiBiT (MiaPaCa; 0.1% DMSO) DMax, MiaPaCa-2 HiBit-KRas^G12C cells, 0.1% DMSO, maximum degradation): 35 to 70%; Dmax (HiBit-KRAS^G12C [2]; [7]): 35 to 70% |
| Cc1ncsc1-c1ccc([C@H](C)NC(=O)[C@@H]2C[C@@H](O)CN2C(=O)[C@@H](NC(=O)COCC2CCN(CCOc3nc(N4CCN(C(=O)/C=C/CN(C)C)[C@@H](CC#N)C4)c4cc(Cl)c(-c5cc(O)cc6ccccc56)c(F)c4n3)CC2)C(C)(C)C)cc1 [Compound 165, (2S,4R)-1-[(2S)-2-[2-({1-[2-({6-chloro-4-[(3S)-3-(cyanomethyl)-4-[(2E)-4-(dimethylamino)but-2-enoyl]piperazin-1-yl]-8-fluoro-7-(3-hydroxynaphthalen-1-yl)quinazolin-2-yl}oxy)ethyl]piperidin-4-yl}methoxy)acetamido]-3,3-dimethylbutanoyl]-4-hydroxy-N-[(1S)-1-[4-(4-methyl-1,3-thiazol-5-yl)phenyl]ethyl]pyrrolidine-2-carboxamide] | > 1000 | 100 to 1000 |  |  | Dmax (HiBit-KRAS^G12C [1]; [3]): 35 to 70%; Dmax (HiBit-KRAS^G12C [2]; SW1573, SW1573 HiBit-KRas^G12C, 0.5% DMSO, read-out: KRas^G12C-HiBiT (SW1573; 0.5% DMSO) Dmax**): 35 to 70% |
| C=CC(=O)N1CCN(c2nc(OCCN3CCC(F)(CN(C)CC(=O)N[C@H](C(=O)N4C[C@H](O)C[C@H]4C(=O)N[C@@H](C)c4ccc(-c5scnc5C)cc4)C(C)(C)C)CC3)nc3c(F)c(-c4cc(O)cc5ccccc45)c(Cl)cc23)C[C@@H]1CC#N [Compound 120, (2S,4R)-1-[(2S)-2-{2-[({1-[2-({6-chloro-4-[(3S)-3-(cyanomethyl)-4-(prop-2-enoyl)piperazin-1-yl]-8-fluoro-7-(3-hydroxynaphthalen-1-yl)quinazolin-2-yl}oxy)ethyl]-4-fluoropiperidin-4-yl}methyl)(methyl)amino]acetamido}-3,3-dimethylbutanoyl]-4-hydroxy-N-[(1S)-1-[4-(4-methyl-1,3-thiazol-5-yl)phenyl]ethyl]pyrrolidine-2-carboxamide] | 100 to 1000 | 100 to 1000 |  |  | Dmax (HiBit-KRAS^G12C [1]; MIA PaCa-2, read-out: KRas^G12C-HiBiT (MiaPaCa; 0.5% DMSO) DMax, MiaPaCa-2 HiBit-KRas^G12C cells, 0.5% DMSO, maximum degradation): 35 to 70%; Dmax (HiBit-KRAS^G12C [2]; SW1573, read-out: KRas^G12C-HiBiT (SW1573; 0.5% DMSO) Dmax**, SW1573 HiBit-KRas^G12C, 0.5% DMSO): 35 to 70% |
| C=CC(=O)N1CCN(c2nc(O[C@H](C)CN3CCN(CCCN4CCN(CC(=O)N[C@H](C(=O)N5C[C@H](O)C[C@H]5C(=O)N[C@@H](C)c5ccc(-c6scnc6C)cc5)C(C)(C)C)CC4)CC3)nc3c(F)c(-c4cc(O)cc5ccccc45)c(Cl)cc23)CC1 [Compound 49, (2S,4R)-1-[(2S)-2-{2-[4-(3-{4-[(2R)-2-{[6-chloro-8-fluoro-7-(3-hydroxynaphthalen-1-yl)-4-[4-(prop-2-enoyl)piperazin-1-yl]quinazolin-2-yl]oxy}propyl]piperazin-1-yl}propyl)piperazin-1-yl]acetamido}-3,3-dimethylbutanoyl]-4-hydroxy-N-[(1S)-1-[4-(4-methyl-1,3-thiazol-5-yl)phenyl]ethyl]pyrrolidine-2-carboxamide] |  |  | 100 to 1000 | > 1000 | Dmax (HiBit-KRAS^G12C [2]; [7]): < 35% |

Further lines, with some results ahead:

| DC50 (HiBit-KRAS^G12C [1]; [4]) [nM] | DC50 (HiBit-KRAS^G12C [2]; [6]) [nM] | DC50 (HiBit-KRAS^G12C [2]; [8]) [nM] | DC50 (HiBit-KRAS^G12C [1]; [9]) [nM] | SMILES | further results |
| --- | --- | --- | --- | --- | --- |
| < 100 | < 100 |  |  | C=C(F)C(=O)N1CCN(c2nc(OCCN3CCC(COc4cc([C@H](C(=O)N5C[C@H](O)C[C@H]5C(=O)N[C@@H](C)c5ccc(-c6scnc6C)cc5)C(C)C)on4)CC3)nc3c(F)c(-c4cc(O)cc5ccccc45)c(Cl)cc23)C[C@@H]1CC#N (atropisomer, axis not shown) [Compound 167, (2S,4R)-1-[(2R)-2-[3-({1-[2-({6-chloro-4-[(3S)-3-(cyanomethyl)-4-(2-fluoroprop-2-enoyl)piperazin-1-yl]-8-fluoro-7-(3-hydroxynaphthalen-1-yl)quinazolin-2-yl}oxy)ethyl]piperidin-4-yl}methoxy)-1,2-oxazol-5-yl]-3-methylbutanoyl]-4-hydroxy-N-[(1S)-1-[4-(4-methyl-1,3-thiazol-5-yl)phenyl]ethyl]pyrrolidine-2-carboxamide] | Dmax (HiBit-KRAS^G12C [1]; [3]): > 70%; KRas^G12C-HiBiT (SW1573; 0.5% DMSO) Dmax** (HiBit-KRAS^G12C [2]; [5]): A (A ≥ 70) |
|  |  | < 100 | > 1000 | C=CC(=O)N1CCN(c2nc(O[C@H](C)CN3CCC(OCCN4CCN(CC(=O)N[C@H](C(=O)N5C[C@H](O)C[C@H]5C(=O)N[C@@H](C)c5ccc(-c6scnc6C)cc5)C(C)(C)C)CC4)CC3)nc3c(F)c(-c4cc(O)cc5ccccc45)c(Cl)cc23)CC1 [Compound 54, (2S,4R)-1-[(2S)-2-(2-{4-[2-({1-[(2R)-2-{[6-chloro-8-fluoro-7-(3-hydroxynaphthalen-1-yl)-4-[4-(prop-2-enoyl)piperazin-1-yl]quinazolin-2-yl]oxy}propyl]piperidin-4-yl}oxy)ethyl]piperazin-1-yl}acetamido)-3,3-dimethylbutanoyl]-4-hydroxy-N-[(1S)-1-[4-(4-methyl-1,3-thiazol-5-yl)phenyl]ethyl]pyrrolidine-2-carboxamide] |  |
|  |  | 100 to 1000 | > 1000 | C=CC(=O)N1CCN(c2nc(O[C@H](C)CN3CCC(OCCOCC(=O)N[C@H](C(=O)N4C[C@H](O)C[C@H]4C(=O)N[C@@H](C)c4ccc(-c5scnc5C)cc4)C(C)(C)C)CC3)nc3c(F)c(-c4cc(O)cc5ccccc45)c(Cl)cc23)C[C@H]1C [Compound 45, (2S,4R)-1-[(2S)-2-{2-[2-({1-[(2R)-2-{[6-chloro-8-fluoro-7-(3-hydroxynaphthalen-1-yl)-4-[(3R)-3-methyl-4-(prop-2-enoyl)piperazin-1-yl]quinazolin-2-yl]oxy}propyl]piperidin-4-yl}oxy)ethoxy]acetamido}-3,3-dimethylbutanoyl]-4-hydroxy-N-[(1S)-1-[4-(4-methyl-1,3-thiazol-5-yl)phenyl]ethyl]pyrrolidine-2-carboxamide] | Dmax (HiBit-KRAS^G12C [2]; [10]): < 35% |
|  |  | 100 to 1000 |  | C=CC(=O)N1CCN(c2nc(O[C@H](C)CN3CCC(OCCOc4cc(-c5scnc5C)ccc4CNC(=O)[C@@H]4C[C@@H](O)CN4C(=O)[C@H](c4cc(C)no4)C(C)C)CC3)nc3c(F)c(-c4cc(O)cc5ccccc45)c(Cl)cc23)CC1 [Compound 77, (2S,4R)-N-({2-[2-({1-[(2R)-2-{[6-chloro-8-fluoro-7-(3-hydroxynaphthalen-1-yl)-4-[4-(prop-2-enoyl)piperazin-1-yl]quinazolin-2-yl]oxy}propyl]piperidin-4-yl}oxy)ethoxy]-4-(4-methyl-1,3-thiazol-5-yl)phenyl}methyl)-4-hydroxy-1-[(2S)-3-methyl-2-(3-methyl-1,2-oxazol-5-yl)butanoyl]pyrrolidine-2-carboxamide] | Dmax (HiBit-KRAS^G12C [1]; MIA PaCa-2, MiaPaCa-2 HiBit-KRas^G12C cells, 0.1% DMSO, maximum degradation, read-out: KRas^G12C-HiBiT (MiaPaCa; 0.1% DMSO) DMax): < 35%; Dmax (HiBit-KRAS^G12C [2]; [10]): < 35% |
| < 100 | < 100 |  |  | C=CC(=O)N1CCN(c2nc(OCCN3CCC(COc4cc([C@H](C(=O)N5C[C@H](O)C[C@H]5C(=O)N[C@@H](C)c5ccc(-c6scnc6C)cc5)C(C)C)on4)CC3)nc3c(F)c(-c4cc(O)cc5ccccc45)c(Cl)cc23)C[C@@H]1CC#N (atropisomer, axis not shown) [Compound 173, (2S,4R)-1-[(2R)-2-[3-({1-[2-({6-chloro-4-[(3S)-3-(cyanomethyl)-4-(prop-2-enoyl)piperazin-1-yl]-8-fluoro-7-(3-hydroxynaphthalen-1-yl)quinazolin-2-yl}oxy)ethyl]piperidin-4-yl}methoxy)-1,2-oxazol-5-yl]-3-methylbutanoyl]-4-hydroxy-N-[(1S)-1-[4-(4-methyl-1,3-thiazol-5-yl)phenyl]ethyl]pyrrolidine-2-carboxamide] | KRas^G12C-HiBiT (MiaPaCa; 0.5% DMSO) DMax (HiBit-KRAS^G12C [1]; MiaPaCa-2 HiBit-KRas^G12C cells, 0.5% DMSO, maximum degradation): A (A ≥ 70); KRas^G12C-HiBiT (SW1573; 0.5% DMSO) Dmax** (HiBit-KRAS^G12C [2]; [5]): A (A ≥ 70) |
